Test results from US20250099448A1, “HETEROCYCLIC COMPOUNDS” (Hoffmann-La Roche Inc., priority 2022, published 2025).

Target: T1, MAGL protein (Homo sapiens, UniProt Q99685)
T1 sequence (Q99685 1-303): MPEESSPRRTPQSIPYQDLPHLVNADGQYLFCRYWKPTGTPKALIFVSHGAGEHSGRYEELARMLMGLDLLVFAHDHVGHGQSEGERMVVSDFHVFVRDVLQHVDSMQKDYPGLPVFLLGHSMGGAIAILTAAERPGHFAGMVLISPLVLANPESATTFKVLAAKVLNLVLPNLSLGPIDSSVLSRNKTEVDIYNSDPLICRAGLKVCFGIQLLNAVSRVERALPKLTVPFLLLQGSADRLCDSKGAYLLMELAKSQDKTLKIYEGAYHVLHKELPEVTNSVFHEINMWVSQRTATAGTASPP
Assay: 2-AG assay: MAGL inhibitory activity by hydrolysis of 2-arachidonoylglycerol to arachidonic acid, followed by mass spectrometry
Assay type: biochemical
Conditions: 8 μM 2-arachidonoylglycerol, 15 min preincubation, 30 min reaction at RT, RapidFire MS readout
How it was run: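 Activity was measured by RapidFire SPE–triple-quad MS as the ratio of arachidonic acid to d8-arachidonic acid after 2-AG hydrolysis (8 μM substrate, 30 min, RT, acetonitrile quench). Compounds, tested from 12.5 μM down to […], were first preincubated 15 min with MAGL in TRIS/EDTA/Tween-20 buffer containing 2.5% DMSO.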

SMILES | IC50 [nM]
O=C(N1CC2(CC(c3nnc(C4CC4)[nH]3)C2)C1)C12C3C4C1C1C2C3C41Nc1cnc(C(F)(F)F)cn1 (centres unmarked) [Example 811, [6-(5-cyclopropyl-4H-1,2,4-triazol-3-yl)-2-azaspiro[3.3]heptan-2-yl]-[4-[[5-(trifluoromethyl)pyrazin-2-yl]amino]cuban-1-yl]methanone] | 0.43
NC(=O)C1CCCCN1c1ccc(C2CN(C(=O)N3CC4(CC(c5nnc(C6CC6)[nH]5)C4)C3)C2)cc1 (centres unmarked) [compound 384] | 2.64
O=C(N1CC(C23CC(COc4ccc(C(F)(F)F)cn4)(C2)C3)C1)N1CC2(CC(c3nc(C4CC4)n[nH]3)C2)C1 [compound 941] | 0.04
O=C(N1CC(c2cnc(OCC3(C(F)(F)F)CC3)cn2)C1)N1CC2(CC(c3nc(C4(F)CC4)n[nH]3)C2)C1 [compound 431] | 0.39
O=C(N1CC2(CC(c3nnc(C4CC4)[nH]3)C2)C1)N1CC2(C1)CN(C(=O)C(F)(F)F)C2 [Example 217, 1-[2-[6-(5-cyclopropyl-4H-1,2,4-triazol-3-yl)-2-azaspiro[3.3]heptane-2-carbonyl]-2,6-diazaspiro[3.3]heptan-6-yl]-2,2,2-trifluoro-ethanone] | 3580
CC(C)c1cc(C(C)C)n(-c2ccc(C3CN(C(=O)N4CC5(CC(c6nc(C7(O)CC7)n[nH]6)C5)C4)C3)cc2)n1 [compound 751] | 0.66
O=C(N1CC2(CC(c3nc(C4CC4)n[nH]3)C2)C1)N1CC2(CC(C(F)c3ccc(C(F)(F)F)nc3)C2)C1 (centres unmarked) [compound 845] | 9.83
O=C(N1CC2(CC(Cc3ncc(F)cc3F)C2)C1)N1CC2(CC(c3nnc(C4CC4)[nH]3)C2)C1 [compound 115] | 0.2
CS(=O)(=O)c1cc(OC(F)(F)F)ccc1OCC1CCN(C(=O)N2CC3(CC(c4nnc(C5CC5)[nH]4)C3)C2)CC1 [Example 917, [6-(5-cyclopropyl-4H-1,2,4-triazol-3-yl)-2-azaspiro[3.3]heptan-2-yl]-[4-[[2-mesyl-4-(trifluoromethoxy)phenoxy]methyl]piperidino]methanone] | 237
O=C(N1CC2(CC(Cc3cccc(S(=O)(=O)C(F)(F)F)c3)C2)C1)N1CC2(CC(c3nc(C4COC4)n[nH]3)C2)C1 [compound 728] | 4.19
O=C(N1CC2(CC(c3nc(C4CC4)n[nH]3)C2)C1)N1CC2(CN(Cc3ncoc3C(F)(F)F)C2)C1 [compound 701] | 64.4
O=C(N1CC(C23CC(Cc4ccc(C(F)(F)F)cc4F)(C2)C3)C1)N1CC2(CC(c3nc(C4CC4)n[nH]3)C2)C1 [compound 527] | 0.98
O=C(N1CC2(CC(Oc3cncc(C(F)(F)F)n3)C2)C1)N1CC2(CC(c3nnc(C4CC4)[nH]3)C2)C1 [compound 133] | 1.73
O=C(N1CC2(CC(Cc3ccc(F)cc3F)C2)C1)N1CC2(CC(c3nnc(C4(O)CC4)[nH]3)C2)C1 [compound 36] | 0.05
Cc1cc(C(F)(F)F)nn1-c1ccc(C2CN(C(=O)N3CC4(CC(c5nnc(C6CC6)[nH]5)C4)C3)C2)cc1 [compound 278] | 0.3
O=C(N1CC2(CC(c3nnc(C4CC4)[nH]3)C2)C1)N1CC2(CCN(Cc3cnc(C(F)(F)F)cn3)C2)C1 [compound 184] | 11.7
CS(=O)(=O)c1cc(C(F)(F)F)ccc1OCC1CCN(C(=O)N2CC3(CC(c4nc(C5CC5)n[nH]4)C3)C2)CC1 [Example 915, [6-(3-cyclopropyl-1H-1,2,4-triazol-5-yl)-2-azaspiro[3.3]heptan-2-yl]-[4-[[2-mesyl-4-(trifluoromethyl)phenoxy]methyl]piperidino]methanone] | 241
Cn1ncc(C(F)(F)F)c1CN1CCC2(CC1)CN(C(=O)N1CC3(CC(c4nc(C5CC5)n[nH]4)C3)C1)C2 [compound 461] | 1
Cn1ncc(C(F)(F)F)c1CN1CC2(C1)CN(C(=O)N1CC3(CC(c4nc(C5CC5)n[nH]4)C3)C1)C2 [compound 664] | 2.74
O=C(N1CC(c2cnc(N3CC(C(F)(F)F)C3)nc2)C1)N1CC2(CC(c3nc(C4CC(F)(F)C4)n[nH]3)C2)C1 [compound 978] | 2210
O=C(N1CC2(CC(Cc3cn4cc(C(F)(F)F)nc4cn3)C2)C1)N1CC2(CC(c3nc(C4CC4)n[nH]3)C2)C1 [compound 991] | 2.03
O=C(N1CC2(CC(Cn3cnc(C(F)(F)F)n3)C2)C1)N1CC2(CC(c3nnc(C4CC4)[nH]3)C2)C1 [compound 71] | 1.74
O=C(N1CC(C23CC(CNC4(C(F)(F)F)CC4)(C2)C3)C1)N1CC2(CC(c3nnc(C4CC4)[nH]3)C2)C1 [compound 341] | 0.12
O=C(N1CC(c2ccc(C3(C(F)(F)F)CC3)cc2)C1)N1CC2(CC(c3nnc([C@@H](O)C(F)(F)F)[nH]3)C2)C1 (single isomer, unassigned) [compound 229] | 33.9
O=C(N1CC2(CC(c3nnc(C4CC4)[nH]3)C2)C1)N1CC2(C1)CN(S(=O)(=O)c1ccccc1OC(F)(F)F)C2 [compound 94] | 3.88

SMILES | IC50 [nM]
Cn1cc(-c2ccc(C3CN(C(=O)N4CC5(CC(c6nc(C7(O)CC7)n[nH]6)C5)C4)C3)cc2)c(C(F)(F)F)n1 [compound 823] | 0.21
CS(=N)(=O)c1ccc(CC2CC3(C2)CN(C(=O)N2CC4(CC(c5nnc(C6CC6)[nH]5)C4)C2)C3)cc1 (centres unmarked) [compound 123] | 3.98
N#Cc1cc(C(F)(F)F)ncc1CC1CC2(C1)CN(C(=O)N1CC3(CC(c4nnc(C5CC5)[nH]4)C3)C1)C2 [compound 843] | 1.07
Cc1csc(CN2CC3(C2)CN(C(=O)N2CC4(CC(c5nnc(C6CC6)[nH]5)C4)C2)C3)n1 [Example 895, [6-(5-cyclopropyl-4H-1,2,4-triazol-3-yl)-2-azaspiro[3.3]heptan-2-yl]-[6-[(4-methylthiazol-2-yl)methyl]-2,6-diazaspiro[3.3]heptan-2-yl]methanone] | 23.5
CC(C)(C)CS(=O)(=O)NC1CC2(C1)CN(C(=O)N1CC3(CC(c4nnc(C5CC5)[nH]4)C3)C1)C2 [compound 225] | 3.67
COc1cc(C(N)=O)ccc1COC1CCN(C(=O)N2CC3(CC(c4nnc(C5CC5)[nH]4)C3)C2)CC1 [Example 885, 4-[[1-[6-(5-cyclopropyl-4H-1,2,4-triazol-3-yl)-2-azaspiro[3.3]heptane-2-carbonyl]-4-piperidyl]oxymethyl]-3-methoxy-benzamide] | 352
CS(=O)(=O)c1ccc(CC2CC3(C2)CN(C(=O)N2CC4(CC(c5nnc(C6CC6)[nH]5)C4)C2)C3)cc1C(F)(F)F [compound 46] | 0.9
O=C(N1CCC(COc2ccc(C(F)(F)F)nc2)CC1)N1CC2(CC(c3nnc(C4CC4)[nH]3)C2)C1 [Example 903] | 125
O=C(N1CC2(CC(CNC3(C(F)(F)F)CC3)C2)C1)N1CC2(CC(c3nnc(C4(O)CC4)[nH]3)C2)C1 [compound 55] | 22
O=C(N1CC(c2ccc(C3(CO)CC3)cc2)C1)N1CC2(CC(c3nnc(C4CC4)[nH]3)C2)C1 [compound 295] | 1.41
O=C(N1CC2(CC(c3nc(C4CC4)n[nH]3)C2)C1)N1CC2(CN(Cc3ccc[nH]c3=O)C2)C1 [compound 718] | 550
N#Cc1ccc(CN2CC3(C2)CN(C(=O)N2CC4(CC(c5nc(C6CC6)n[nH]5)C4)C2)C3)c(C(F)(F)F)c1 [compound 882] | 1.82
Cn1cc(C(F)(F)F)c(CC2CC3(C2)CN(C(=O)N2CC4(CC(c5nc(C6CC6)n[nH]5)C4)C2)C3)n1 [compound 479] | 0.18
CS(=O)(=O)c1cc(C(F)(F)F)ccc1OCC1CCN(C(=O)N2CC3(CC(c4nc(C5(O)CC5)n[nH]4)C3)C2)CC1 [Example 919, [6-[3-(1-hydroxycyclopropyl)-1H-1,2,4-triazol-5-yl]-2-azaspiro[3.3]heptan-2-yl]-[4-[[2-mesyl-4-(trifluoromethyl)phenoxy]methyl]piperidino]methanone] | 1200
CC(C)(C)c1nnc(CN2CC3(C2)CN(C(=O)N2CC4(CC(c5nc(C6CC6)n[nH]5)C4)C2)C3)s1 [compound 487] | 9.82
O=C(N1CC2(CC(c3cncc(F)c3)C2)C1)N1CC2(CC(c3nnc(C4CC4)[nH]3)C2)C1 [compound 497] | 22.3
O=C(N1CC2(CC(Cc3ncc(F)cc3Cl)C2)C1)N1CC2(CC(c3nc(C4CC(F)(F)C4)n[nH]3)C2)C1 [compound 617] | 8.16
CCOc1cc(C)nn1-c1ccc(C2CN(C(=O)N3CC4(CC(c5nnc(C6CC6)[nH]5)C4)C3)C2)cc1 [Example 449, [6-(5-cyclopropyl-4H-1,2,4-triazol-3-yl)-2-azaspiro[3.3]heptan-2-yl]-[3-[4-(5-ethoxy-3-methyl-pyrazol-1-yl)phenyl]azetidin-1-yl]methanone] | 0.45
O=C(N1CC2(CCC(S(=O)(=O)c3cccc(C(F)(F)F)c3)CC2)C1)N1CC2(CC(c3nc(C4(O)CC4)n[nH]3)C2)C1 [compound 421] | 50.4
Cc1cc(C2CC2)n(-c2ccc(C3CN(C(=O)N4CC5(CC(c6nnc(C7CC7)[nH]6)C5)C4)C3)cc2)n1 [compound 287] | 0.13
O=C(N1CC(NCc2cc(Cl)ccc2C(F)(F)F)C1)N1CC2(CC(c3nnc(C4CC4)[nH]3)C2)C1 [compound 199] | 31.9
O=C(N1CC(c2ccc(N3CC4(CCOC4)C3)nc2)C1)N1CC2(CC(c3nnc(C4CC4)[nH]3)C2)C1 [compound 290] | 21
NC(=O)c1ccccc1-c1ccc(C2CN(C(=O)N3CC4(CC(c5nnc(C6CC6)[nH]5)C4)C3)C2)cc1 [compound 340] | 1.09
O=C(N1CC(OCc2ccc(S(=O)(=O)C(F)(F)F)cc2F)C1)N1CC2(CC(c3nc(C4CC(F)(F)C4)n[nH]3)C2)C1 [compound 502] | 262
Cn1cc(CC2CC3(C2)CN(C(=O)N2CC4(CC(c5nc(C6CC6)n[nH]5)C4)C2)C3)c(C(F)(F)F)n1 [compound 770] | 0.23
